Results on 18 compounds are retold here after the supplement of paper PMC8967900.
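Further: ALL cell lines in 384-well plates, five doses spanning 10,000-fold, each plate scaled between vehicle and 100 µmol/L benzalkonium chloride controls, sDSS an adapted area-under-curve metric.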

One test deals with CCRF-HSB2. Kind of test: selective drug sensitivity score (sDSS, relative to normal bone marrow) (sDSS (score)); higher = more potent and effective on the cell line relative to normal bone marrow cells. The conditions noted are these: 72 h.
As to `Cn1cncc1[C@@](N)(c1ccc(Cl)cc1)c1ccc2c(c1)c(-c1cccc(Cl)c1)cc(=O)n2C` [Tipifarnib] (top concentration 10000 nM), the “selective drug sensitivity score” value is 9.4.
Regarding `COc1ccccc1S(=O)(=O)Nc1ccc2c(c1)CN(C)C(=O)N2` [PFI-1] (top concentration 30000 nM), the “selective drug sensitivity score” value was 1.
Same read-out and setting: the figure for `Cc1cn(-c2cc(NC(=O)c3ccc(C)c(Nc4nccc(-c5cnccn5)n4)c3)cc(C(F)(F)F)c2)cn1` [Radotinib] (top concentration 10000 nM) is 8.2; for `CC[C@H](Nc1ncnc2[nH]cnc12)c1nc2cccc(F)c2c(=O)n1-c1ccccc1` [Idelalisib] (top concentration 10000 nM) it is 1.24.
On the same count and under the same terms, the figure for `Cc1noc2c1-c1ccccc1C(c1ccc(Cl)cc1)=N[C@H]2CC(N)=O` [CPI-0610] (top concentration 10000 nM) is 0.8; for `C=C(c1ccc(C(=O)O)cc1)c1cc2c(cc1C)C(C)(C)CCC2(C)C` [Bexarotene] (top concentration 10000 nM) it is -0.9; for `CC1(COc2ccc3c(c2)ncn3-c2ccc3cccc(N4CCC(N)CC4)c3n2)COC1` [Crenolanib] (top concentration 10000 nM) it is 4.98.
On the same count and under the same terms, the figure for `O=C(Nc1cc(Oc2cc(F)c(NC(=O)C3(C(=O)Nc4ccc(F)cc4)CC3)cc2F)ccn1)C1CC1` [Altiratinib] (top concentration 10000 nM) is 8.14.
In the case of `O=C(Nc1ccncc1)C(=O)c1cn(Cc2ccc(Cl)cc2)c2ccccc12` [Indibulin] (top concentration 10000 nM), the “selective drug sensitivity score” value turned out to be 11.2.
As to `Cc1ncc(-c2ccnc(Nc3ccc(S(C)(=O)=O)cc3)n2)n1C(C)C` [AZD-5438] (top concentration 10000 nM), the “selective drug sensitivity score” value came out at 1.34.
Take `NC[C@@](O)(c1ccc(Cl)cc1)c1ccc(-c2cn[nH]c2)cc1` (top concentration 10000 nM): the “selective drug sensitivity score” value turned out to be 5.28.
The same measure, in the same setting: as for `Cn1c(Nc2ccc(C(F)(F)F)cc2)nc2cc(Oc3ccnc(-c4ncc(C(F)(F)F)[nH]4)c3)ccc21` [NVP-RAF265] (top concentration 1000 nM), the figure is 5.98.
Turning to `CNCc1ccc(-c2[nH]c3cc(F)cc4c3c2CCNC4=O)cc1` [Rucaparib] (top concentration 10000 nM), the “selective drug sensitivity score” value amounted to 1.22.
Still for that read-out and setting: as for `O=C(CCCCCCC(=O)Nc1ccc([C@H]2O[C@@H](CSc3nc(-c4ccccc4)c(-c4ccccc4)o3)C[C@@H](c3ccc(CO)cc3)O2)cc1)NO` [Tubacin] (top concentration 10000 nM), the figure is 15.8; as for `N#CCNC(=O)c1ccc(-c2ccnc(Nc3ccc(N4CCOCC4)cc3)n2)cc1` [Momelotinib] (top concentration 10000 nM), 1.08; as for `Nc1cccc2c1CN(C1CCC(=O)NC1=O)C2=O` (stereo not given) [Lenalidomide] (top concentration 100000 nM), 0.22.
Still for that read-out and setting: as for `CCN1CCN(Cc2ccc(Nc3ncc(F)c(-c4cc(F)c5nc(C)n(C(C)C)c5c4)n3)nc2)CC1` [Abemaciclib] (top concentration 2500 nM), the figure is -2.46; as for `Cc1cc(Nc2ncc(Cl)c(Nc3ccccc3S(=O)(=O)C(C)C)n2)c(OC(C)C)cc1C1CCNCC1` [Ceritinib] (top concentration 2500 nM), -3.44.

Another test concerns MN-60. The test is described as above. Conditions: 72 h.
For `Cn1cncc1[C@@](N)(c1ccc(Cl)cc1)c1ccc2c(c1)c(-c1cccc(Cl)c1)cc(=O)n2C` [Tipifarnib] (top concentration 10000 nM), the “selective drug sensitivity score” value was found to be 2.
The same measure, in the same setting: as for `COc1ccccc1S(=O)(=O)Nc1ccc2c(c1)CN(C)C(=O)N2` [PFI-1] (top concentration 30000 nM), the figure is 2.9; as for `Cc1cn(-c2cc(NC(=O)c3ccc(C)c(Nc4nccc(-c5cnccn5)n4)c3)cc(C(F)(F)F)c2)cn1` [Radotinib] (top concentration 10000 nM), 0.4; as for `CC[C@H](Nc1ncnc2[nH]cnc12)c1nc2cccc(F)c2c(=O)n1-c1ccccc1` [Idelalisib] (top concentration 10000 nM), -2.16.
Still for that read-out and setting: the figure for `Cc1noc2c1-c1ccccc1C(c1ccc(Cl)cc1)=N[C@H]2CC(N)=O` [CPI-0610] (top concentration 10000 nM) is 6.9.
As for `C=C(c1ccc(C(=O)O)cc1)c1cc2c(cc1C)C(C)(C)CCC2(C)C` [Bexarotene] (top concentration 10000 nM), the “selective drug sensitivity score” value is -5.3.
Regarding `CC1(COc2ccc3c(c2)ncn3-c2ccc3cccc(N4CCC(N)CC4)c3n2)COC1` [Crenolanib] (top concentration 10000 nM), the “selective drug sensitivity score” value is -3.42.
For `O=C(Nc1cc(Oc2cc(F)c(NC(=O)C3(C(=O)Nc4ccc(F)cc4)CC3)cc2F)ccn1)C1CC1` [Altiratinib] (top concentration 10000 nM), the “selective drug sensitivity score” value was -4.86.
Turning to `O=C(Nc1ccncc1)C(=O)c1cn(Cc2ccc(Cl)cc2)c2ccccc12` [Indibulin] (top concentration 10000 nM), the “selective drug sensitivity score” value turned out to be 1.84.
On the same count and under the same terms, the figure for `Cc1ncc(-c2ccnc(Nc3ccc(S(C)(=O)=O)cc3)n2)n1C(C)C` [AZD-5438] (top concentration 10000 nM) is -7.96; for `NC[C@@](O)(c1ccc(Cl)cc1)c1ccc(-c2cn[nH]c2)cc1` (top concentration 10000 nM) it is 0.58; for `Cn1c(Nc2ccc(C(F)(F)F)cc2)nc2cc(Oc3ccnc(-c4ncc(C(F)(F)F)[nH]4)c3)ccc21` [NVP-RAF265] (top concentration 1000 nM) it is -0.22.
Same read-out and setting: the figure for `CNCc1ccc(-c2[nH]c3cc(F)cc4c3c2CCNC4=O)cc1` [Rucaparib] (top concentration 10000 nM) is -0.58.
On the same count and under the same terms, as for `O=C(CCCCCCC(=O)Nc1ccc([C@H]2O[C@@H](CSc3nc(-c4ccccc4)c(-c4ccccc4)o3)C[C@@H](c3ccc(CO)cc3)O2)cc1)NO` [Tubacin] (top concentration 10000 nM), the figure is 5.44; as for `N#CCNC(=O)c1ccc(-c2ccnc(Nc3ccc(N4CCOCC4)cc3)n2)cc1` [Momelotinib] (top concentration 10000 nM), -7.22.
As for `Nc1cccc2c1CN(C1CCC(=O)NC1=O)C2=O` (stereo not given) [Lenalidomide] (top concentration 100000 nM), the “selective drug sensitivity score” value was -2.28.
For `CCN1CCN(Cc2ccc(Nc3ncc(F)c(-c4cc(F)c5nc(C)n(C(C)C)c5c4)n3)nc2)CC1` [Abemaciclib] (top concentration 2500 nM), the “selective drug sensitivity score” value was -8.16.
For the compound `Cc1cc(Nc2ncc(Cl)c(Nc3ccccc3S(=O)(=O)C(C)C)n2)c(OC(C)C)cc1C1CCNCC1` [Ceritinib] (top concentration 2500 nM), the “selective drug sensitivity score” value is -2.64.

The test system of the next test is TMD5. The test is described as above. The conditions noted are these: 72 h.
With `Cn1cncc1[C@@](N)(c1ccc(Cl)cc1)c1ccc2c(c1)c(-c1cccc(Cl)c1)cc(=O)n2C` [Tipifarnib] (top concentration 10000 nM), the “selective drug sensitivity score” value came out at 6.8.
The same measure, in the same setting: the figure for `COc1ccccc1S(=O)(=O)Nc1ccc2c(c1)CN(C)C(=O)N2` [PFI-1] (top concentration 30000 nM) is -4.5; for `Cc1cn(-c2cc(NC(=O)c3ccc(C)c(Nc4nccc(-c5cnccn5)n4)c3)cc(C(F)(F)F)c2)cn1` [Radotinib] (top concentration 10000 nM) it is 22.
`CC[C@H](Nc1ncnc2[nH]cnc12)c1nc2cccc(F)c2c(=O)n1-c1ccccc1` [Idelalisib] (top concentration 10000 nM): the “selective drug sensitivity score” value was 8.84.
On the same count and under the same terms, the figure for `Cc1noc2c1-c1ccccc1C(c1ccc(Cl)cc1)=N[C@H]2CC(N)=O` [CPI-0610] (top concentration 10000 nM) is 0; for `C=C(c1ccc(C(=O)O)cc1)c1cc2c(cc1C)C(C)(C)CCC2(C)C` [Bexarotene] (top concentration 10000 nM) it is 0.1; for `CC1(COc2ccc3c(c2)ncn3-c2ccc3cccc(N4CCC(N)CC4)c3n2)COC1` [Crenolanib] (top concentration 10000 nM) it is -0.02.
With `O=C(Nc1cc(Oc2cc(F)c(NC(=O)C3(C(=O)Nc4ccc(F)cc4)CC3)cc2F)ccn1)C1CC1` [Altiratinib] (top concentration 10000 nM), the “selective drug sensitivity score” value was determined as 3.24.
Same read-out and setting: as for `O=C(Nc1ccncc1)C(=O)c1cn(Cc2ccc(Cl)cc2)c2ccccc12` [Indibulin] (top concentration 10000 nM), the figure is 3.44.
